# Columns and labels:
# [1] = Interaction of S100p1-G and metabolite: streptavidin pull-down from BV2 cells and LC-MS; format: cell-based, mouse; settings: cell lysates
# Procedure: Interaction of S100p1-G and metabolite. Microglial BV2 cells (2×10^6) were transfected with biotinylated oligo S100p1-G or mutant using Lipofectamin RNAiMAX Reagent (Thermo Fisher) according to the manufacturer's instructions overnight at 37° C. […] of aged mouse fecal supernatant (from one-gram feces) was added into the cell growth medium. After six hours, the cells were collected in RIPA lysis buffer. […] of cell lysate was incubated with […] of DYNABEADS® Streptavidin beads (Thermo Fisher) at room temperature for 1 h. The bio-oligo complex was eluted with biotin (4 mg/ml)) in 25 mM Tris-HCL containing 0.3 M NaCl (PH 8.5) at 95° C. for 5 minutes. Metabolite analysis was performed with LC-MS.
# [2] = HPLC analysis of IAA and CA in serum and cerebrospinal fluid (CSF) of mice; format: in vivo, mouse; settings: aged mice, intravenous oligo, twice a week for 2 months
# [3] = Morris water maze (MWM) test; format: in vivo, mouse; settings: aged mice, intravenous, twice a week for 2 months
# Procedure: Morris water maze (MWM) test. Mice were trained in a 122 cm diameter, 50 cm height open-field water maze with non-reflective interior surfaces. The pool water was filled with water maintained at 25±1° C. and mixed with non-toxic white tempera paint. Distinctive and extra-maze cues were marked on the wall at specific locations and were visible to the mice in the maze. Mice were removed from cages, placed into the water from quasi-random start points and allowed a maximum of 60 seconds to probe the escape platform. The inter interval of each trail remained for 15 seconds. For four consecutive days, four trials (training) were recorded each day with a final test on day 5 (FIG. 4A). Performance was evaluated by the mean escape latencies base on every training trial (Vorhees and Williams, 2006).
# microglial cells [4] = assay: Western blot of cleaved caspase-3 and cleaved PARP in ex vivo cultured microglial cells; format: cell-based, mouse
# Procedure: Isolation of microglia, neuron, astrocytes, and oligodendrocytes from the brain. Mice were anaesthetized with a mixture of ketamine (16%) and xylazine (3%) by intraperitoneal injection and then sacrificed under basal conditions by transcardial perfusion with perfusion buffer (Ca^2+/Mg^2+ free HBSS containing 0.5 mM EGTA, 10 mM HEPES and 4.2 mM NaHCO3; pH 7.2). The perfused brain was removed and gently mechanically disaggregated with tweezers in dissociation buffer (HBSS containing 10 mM HEPES and 4.2 mM NaHCO3 supplemented with Type I collagenase (0.05%), Dispase II (25 mg/ml), DNase I (2.5 mg/ml), trypsin inhibitor ([…]); pH 7.5) followed by incubation at 37° C. for 1 hour. The tissue homogenate was centrifuged at 1,350×g for 5 minutes at 4° C. For the isolation of microglia, the digestion enzymes in the tissue homogenate were inactivated by addition of PBS/EDTA containing 5% fetal bovine serum (FBS) and the digested brain bits were triturated gently, passed over a 100 µm filter (Fisher Scientific) and centrifuged. […] The pellet of cells was rinsed in PBS. Any contaminating red blood cells (RBC) were lysed using RBC lysis buffer (Sigma) according to the manufacturer's instructions, rinsed twice with PBS and passed through a 40 µm filter (Fisher Scientific). Cells were then stained for CD11b and CD45 for flow cytometry analysis. The astrocytes were isolated from mouse cortices (n=10). The tissue homogenate was centrifuged at 800×g for 10 minutes at 4° C. following digestion with type II collagenase (1 mg/ml) and type I DNase (10 U/ml) in DMEM for 10 minutes. The cells pelleted by centrifugation were plated in a 100 mm culture dish coated with poly-L-ornithine (Sigma). For the isolation of oligodendrocytes, the glial cells above were cultured in specific media containing T3 and T4 (0.5 mM) as well as platelet-derived growth factor (PDGF, 10 ng/ml) to promote the growth of the different cell types. Isolated glial cells were labelled with the following antibodies against surface markers: CD11b (Biolegend, Cat #101206), CD45 (Biolegend, Cat #147710), GFAP (Biolegend, Cat #837508) and MOG (Biorbyt, Cat #orb412341-FITC). Cells positive for CD11b and CD45Med were identified as microglia. Cells positive for GFAP and negative for CD45 and CD11b were identified as astrocytes. Cells sorted with MOG+CD11b− were identified as oligodendrocytes. Neurons were isolated from mouse brain using the Pierce Primary Neuron Isolation Kit (Thermo Scientific, Cat #88280). Briefly, the tissue homogenate from freshly dissected cortexes was suspended in an equal volume of ice cold HBSS (Sigma) and replaced with Neuronal Isolation Enzyme (with papain) in a 37° C. incubator for 30 minutes. After washing with HBSS, the tissue was cultured in a poly-D-lysine coated plate with Neuronal Culture Medium.
# Western blotting. Cells were treated as indicated in individual Figure legends and whole cell extracts (WCE) were prepared in the radioimmunoprecipitation assay (RIPA) buffer (Sigma) with addition of protease and phosphatase inhibitors (Roche). Proteins were separated by 10% SDS-PAGE and transferred to polyvinylidene difluoride (PVDF) membranes (Bio-Rad Laboratories, Inc., Hercules, CA). Dual color precision protein MW markers (BioRad) were separated in parallel. Antibodies were purchased as follows: cleaved-caspase-3 (ab214430), cleaved PARP (ab203467) and GAPDH (ab9657, Abcam) from Abcam; S100A8 (47310) and S100a9 (72590) from Cell Signaling; and Ltf (GTX81085) from GeneTex. The secondary antibodies conjugated to Fluors Alex-488 (A32723) or Alex-594 (A11012) were purchased from Invitrogen (Eugene, OR). The bands were visualized on the Odyssey Imager (LiCor Inc, Lincoln, NE).
# microglial cells [5] = assay: FACS analysis of apoptotic bodies (ABs) in supernatants of cultured microglial cells; format: cell-based, mouse; settings: microglial cells isolated from young mice
# Procedure: Flow cytometry. Isolated cells were incubated with blocking solution (0.5% BSA/PBS) for 15 minutes at 4° C. For surface staining, cells were stained with various antibodies at room temperature for 1 hour and then washed with PBS. Washed cells were stained for 40 minutes at 4° C. with the appropriate fluorochrome-conjugated antibodies in PBS with 2% FBS. Data were acquired using a BD FACSCalibur flow cytometer (BD Biosciences, San Jose, CA) and analyzed using FlowJo software (Tree Star Inc., Ashland, OR). The following antibodies purchased from Biolegend were used for flow cytometry: anti-CD11b (101208), anti-CD45 (103112) and FITC Annexin V (640945). For the ABs analysis, extracellular vesicles were collected. To recognize the ABs, as described previously, size gates set based on forward scatter (FSC) were applied in combination with Annexin V staining. From these vesicles total ABs were detected using Annexin V staining events.
# Isolation of apoptotic bodies. Apoptotic bodies (ABs) were isolated from culture supernatants as previously described. Briefly, cell culture medium was harvested and cells were removed by pelleting at 335×g for 10 minutes. To remove cell-debris, supernatants were centrifuged at 1,000×g for 10 minutes, followed by another centrifugation at 2,000×g for 30 minutes to pellet ABs. Pelleted ABs were resuspended and washed with PBS.
# [6] = Single-strand gel shift (SSGS) assay; format: binding; settings: oligos (2 μM) incubated with IAA (10 μM), 15% PAGE
# Procedure: Single-strand gel shift (SSGS) assay. To identify the metabolite binding site of S100A8, we synthesized a series of oligonucleotides (oligos) (Eurofins Genomics LLC, KY) specific to the response putative IAA binding site at the promoter region of S100A8. The oligos ([…]) were incubated with […] of IAA at 37° C. for 30 minutes following electrophoresis on a 15% native PAGE without SDS in 0.5×TBE buffer. The oligos were stained with ethidium bromide ([…]) and visualized under ultraviolet (UV) light.
# Given induction of bacterial metabolite IAA causes the degeneration of microglia by elevation of S100A8 at both the transcription and protein level, we hypothesized that IAA might directly target the promoter of S100A8 and regulate the expression of S100A8. Studying the interaction of metabolites, particularly small molecules, with nucleic acid is challenging due to a lack of appropriate tags for the metabolites. Because of this challenge, we developed a strategy raising the possibility to investigate the interaction of small molecules and nucleic acid.
# To test our hypothesis, we first synthesized short single-DNA strains (around 60 mer length each) whose sequences spanned the promoter of S100A8 (FIG. 13A and Table 5). The site and sequence of the promoter and transcription start site (TSS) were determined according to the entire mRNA (Accession #NC_000069.7 (90,576,378 . . . 90,577,341)) and genomic sequence (Accession #L76381) from the NCBI nucleic acid database (FIG. 13A). These DNA oligos (2 μM) were incubated with IAA (10 μM) following native PAGE analysis (FIG. 4A). […] To define the accurate binding site of IAA, we synthesized 10 mer length DNA oligos covering the sequence of S100p1 (Table 5). Unfortunately, the 10 mer length oligo lost the conformational mobility shift in PAGE (FIG. 13C). We then tested the mobility shift with 20 mer oligos. […]
# [7] = Surface plasmon resonance (SPR) of biotin-labeled oligos with IAA; format: binding; settings: biotin labeled oligo on streptavidin sensor chip
# Procedure: Surface plasmon resonance (SPR). To identify the binding activity of the metabolite IAA and S100A8 promoter sequence, SPR experiments were conducted on an OPENSPR™ (Nicoya, Lifesciences, CA). Experiments were performed on a streptavidin sensor (Nicoya, Lifesciences). SPR was run at a flow rate of 20 μl/min using HBS running buffer (20 mM HEPES, 150 mM NaCl, pH 7.4). First, the streptavidin sensor chip was cleaned with octyl β-D-glucopyranoside (40 mM) and CHAPS (20 mM). 200 μl of biotin-conjugated oligos (1 μg/ml, Table 5) were injected on the sensor chip for 10 minutes until a stable resonance was obtained. After immobilization of bio-oligo, the surface was blocked with BSA (3%) in running buffer. After a stable signal was obtained, IAA (10 nM) was run over the immobilized bio-oligo until a stable resonance was obtained. A negative control test was also performed by injecting IAA onto a blank sensor chip to check for non-specific binding. The sensograms were analyzed using TraceDrawer kinetic analysis software.
# [8] = added to ex vivo cultured microglial cells from young mice
molecule,measurement,setting,value
NCCCC[C@H](N)C(=O)O [lysine],metabolite within the Bio-S100p1-G complex (LC-MS),[1],did not find
"S100p1-G-Mut: CTGTATGCAA TTGGCCAAGC (SEQ ID NO: 9), mutant control oligo (DNA CTGTATGCAATTGGCCAAGC; DNA, backbone and methylation of C not given here; further chemistry not fully specified)",IAA in CSF (HPLC),[2],not seen
same,memory and spatial learning (MWM),[3],not seen
"C/C=C/C(=O)O [CA, crotonic acid]",effect on the microglia (cleaved caspase-3),microglial cells [4]; S100A8 deficient microglia cells,abolished
same,cleaved caspase-3,microglial cells [4]; [8],increasing
same,cleaved poly(-ADP-ribose) polymerase (PARP),microglial cells [4]; [8],increasing
same,ABs released into the culture supernatants,microglial cells [5],increase
"hS100A8p: AGCTGTGGGCAGCTGGCCAAGCCTAA (SEQ ID NO: 39), human S100A8 promoter oligo (DNA, backbone and methylation of C not given here; further chemistry not fully specified)",mobility shift on native PAGE after incubation with IAA,[6],binds
NCCCC(=O)O [GABA],metabolite within the Bio-S100p1-G complex (LC-MS),[1],did not find
"S100p1: CTGTGGGCAG CTGGCAAGC TTTCCTCTATAAAAGCAGCTGACACTTAGCCTCACAT (SEQ ID NO: 7), −57 . . . −1 (DNA CTGTGGGCAGCTGGCCAAGCTTTCCTCTATAAAAGCAGCTGACACTTAGCCTCACAT; DNA, backbone and methylation of C not given here; further chemistry not fully specified)",mobility shift on native PAGE after incubation with IAA,[6],mobility shifted
same,interaction with IAA (SPR),[7],targeted by IAA
